According to ChEMBL document CHEMBL2021863, “Design and synthesis of new 4-pyrazolin-3-yl-1,2,3-triazoles and 1,2,3-triazol-4-yl-pyrazolin-1-ylthiazoles as potential antimicrobial agents” (2012):
≈ marks a conversion by molar mass, not a printed value.

system: Priestia megaterium; test: Antimicrobial activity against Bacillus megaterium ATCC 9885 after 24 hrs by two-fold serial dilution method; format: functional; conditions: ATCC 9885, 24 h

Row | Compound | MIC
1 | Cc1ccc(-n2nnc(C3=NN(C(=S)Nc4ccccc4)C(c4ccc(F)cc4)C3)c2C)cc1 (configuration not stated) | 16.5 µg/mL (≈ 35.1 µM)
2 | Cc1ccc(-n2nnc(C3=NN(C(=S)NC(=O)c4ccccc4)C(c4ccc(N5CCCCC5)cc4)C3)c2C)cc1 (configuration not stated) | 8.25 µg/mL (≈ 14.6 µM)
3 | Cc1ccc(-n2nnc(C3=NN(C(N)=S)C(c4ccc(F)cc4)C3)c2C)cc1 (configuration not stated) | 132 µg/mL (≈ 335 µM)

system: Escherichia coli; test: Antimicrobial activity against Escherichia coli ATCC 25922 after 24 hrs by two-fold serial dilution method; format: functional; conditions: ATCC 25922, 24 h

Row | Compound | MIC
4 | Cc1ccc(-n2nnc(C3=NN(C(=S)NC(=O)c4ccccc4)C(c4ccc(N5CCCCC5)cc4)C3)c2C)cc1 (configuration not stated) | 8.25 µg/mL (≈ 14.6 µM)
5 | Cc1ccc(-n2nnc(C3=NN(C(N)=S)C(c4ccc(F)cc4)C3)c2C)cc1 (configuration not stated) | 16.5 µg/mL (≈ 41.8 µM)

system: Priestia megaterium; test: Antimicrobial activity against Bacillus megaterium ATCC 9885 at 100 ug/ml after 24 hrs by agar well diffusion assay; format: functional; conditions: ATCC 9885, 24 h, read-out: DIZ

Row | Compound | zone of inhibition at 100 µg/mL
6 | Cc1ccc(-n2nnc(C3=NN(C(=S)Nc4ccccc4)C(c4ccc(F)cc4)C3)c2C)cc1 (configuration not stated) | 20 mm
7 | Cc1ccc(-n2nnc(C3=NN(C(=S)NC(=O)c4ccccc4)C(c4ccc(N5CCCCC5)cc4)C3)c2C)cc1 (configuration not stated) | 30 mm
8 | Cc1ccc(-n2nnc(C3=NN(C(N)=S)C(c4ccc(F)cc4)C3)c2C)cc1 (configuration not stated) | 18 mm

system: Escherichia coli; test: Antimicrobial activity against Escherichia coli ATCC 25922 at 100 ug/ml after 24 hrs by agar well diffusion assay; format: functional; conditions: ATCC 25922, 24 h, read-out: DIZ

Row | Compound | zone of inhibition at 100 µg/mL
9 | Cc1ccc(-n2nnc(C3=NN(C(=S)NC(=O)c4ccccc4)C(c4ccc(N5CCCCC5)cc4)C3)c2C)cc1 (configuration not stated) | 32 mm
10 | Cc1ccc(-n2nnc(C3=NN(C(N)=S)C(c4ccc(F)cc4)C3)c2C)cc1 (configuration not stated) | 22 mm

system: Bacillus subtilis; test: Antimicrobial activity against Bacillus subtilis ATCC 6633 after 24 hrs by two-fold serial dilution method; format: functional; conditions: ATCC 6633, 24 h

Row | Compound | MIC
11 | Cc1ccc(-n2nnc(C3=NNC(c4ccc(N5CCCCC5)cc4)C3)c2C)cc1 (configuration not stated) | 132 µg/mL (≈ 330 µM)
12 | Cc1ccc(-n2nnc(C3=NN(C(=S)Nc4ccccc4)C(c4ccc(F)cc4)C3)c2C)cc1 (configuration not stated) | 16.5 µg/mL (≈ 35.1 µM)
13 | Cc1ccc(-n2nnc(C3=NN(C(=S)NC(=O)c4ccccc4)C(c4ccc(N5CCCCC5)cc4)C3)c2C)cc1 (configuration not stated) | 33 µg/mL (≈ 58.5 µM)

system: Staphylococcus aureus; test: Antimicrobial activity against Staphylococcus aureus ATCC 29213 after 24 hrs by two-fold serial dilution method; format: functional; conditions: ATCC 29213, 24 h

Row | Compound | MIC
14 | Cc1ccc(-n2nnc(C3=NNC(c4ccc(N5CCCCC5)cc4)C3)c2C)cc1 (configuration not stated) | 132 µg/mL (≈ 330 µM)
15 | Cc1ccc(-n2nnc(C3=NN(C(=S)NC(=O)c4ccccc4)C(c4ccc(N5CCCCC5)cc4)C3)c2C)cc1 (configuration not stated) | 132 µg/mL (≈ 234 µM)

Now from value to compound:

Row | MIC | Compound
16 | 132 µg/mL (≈ 281 µM) | Cc1ccc(-n2nnc(C3=NN(C(=S)Nc4ccccc4)C(c4ccc(F)cc4)C3)c2C)cc1 (configuration not stated)
17 | 33 µg/mL (≈ 69.1 µM) | Cc1ccc(-n2nnc(C3=NN(C(=S)Nc4ccccc4)C(c4ccc(C#N)cc4)C3)c2C)cc1 (configuration not stated)

system: Pseudomonas aeruginosa; test: Antimicrobial activity against Pseudomonas aeruginosa ATCC 27953 at 100 ug/ml after 24 hrs by agar well diffusion assay; format: functional; conditions: ATCC 27953, 24 h, read-out: DIZ

Row | Compound | zone of inhibition at 100 µg/mL
18 | Cc1ccc(-n2nnc(C3=NN(C(=S)Nc4ccccc4)C(c4ccc(C#N)cc4)C3)c2C)cc1 (configuration not stated) | 22 mm
19 | Cc1ccc(-n2nnc(C3=NN(C(=S)NC(=O)c4ccccc4)C(c4ccc(N5CCCCC5)cc4)C3)c2C)cc1 (configuration not stated) | 26 mm
20 | Cc1ccc(-n2nnc(C3=NN(C(N)=S)C(c4ccc(F)cc4)C3)c2C)cc1 (configuration not stated) | 26 mm

system: Klebsiella pneumoniae; test: Antimicrobial activity against Klebsiella pneumoniae ATCC 13883 after 24 hrs by two-fold serial dilution method; format: functional; conditions: ATCC 13883, 24 h

Row | Compound | MIC
21 | Cc1ccc(-n2nnc(C3=NN(C(=S)Nc4ccccc4)C(c4ccc(F)cc4)C3)c2C)cc1 (configuration not stated) | 16.5 µg/mL (≈ 35.1 µM)

system: Klebsiella pneumoniae; test: Antimicrobial activity against Klebsiella pneumoniae ATCC 13883 at 100 ug/ml after 24 hrs by agar well diffusion assay; format: functional; conditions: ATCC 13883, 24 h, read-out: DIZ

Row | Compound | zone of inhibition at 100 µg/mL
22 | Cc1ccc(-n2nnc(C3=NN(C(=S)Nc4ccccc4)C(c4ccc(F)cc4)C3)c2C)cc1 (configuration not stated) | 22 mm

system: Bacillus subtilis; test: Antimicrobial activity against Bacillus subtilis ATCC 6633 at 100 ug/ml after 24 hrs by agar well diffusion assay; format: functional; conditions: ATCC 6633, 24 h, read-out: DIZ

Row | Compound | zone of inhibition at 100 µg/mL
23 | Cc1ccc(-n2nnc(C3=NNC(c4ccc(N5CCCCC5)cc4)C3)c2C)cc1 (configuration not stated) | 16 mm
24 | Cc1ccc(-n2nnc(C3=NN(C(=S)Nc4ccccc4)C(c4ccc(F)cc4)C3)c2C)cc1 (configuration not stated) | 27 mm
25 | Cc1ccc(-n2nnc(C3=NN(C(=S)NC(=O)c4ccccc4)C(c4ccc(N5CCCCC5)cc4)C3)c2C)cc1 (configuration not stated) | 24 mm

system: Saccharomyces cerevisiae; test: Antifungal activity against Saccharomyces cerevisiae by two-fold serial dilution method; format: functional; conditions: not given

Row | Compound | MIC
26 | Cc1ccc(-n2nnc(C3=NNC(c4ccc(N5CCCCC5)cc4)C3)c2C)cc1 (configuration not stated) | 66 µg/mL (≈ 165 µM)
27 | Cc1ccc(-n2nnc(C3=NN(C(=S)NC(=O)c4ccccc4)C(c4ccc(N5CCCCC5)cc4)C3)c2C)cc1 (configuration not stated) | 8.25 µg/mL (≈ 14.6 µM)
28 | Cc1ccc(-n2nnc(C3=NN(C(N)=S)C(c4ccc(F)cc4)C3)c2C)cc1 (configuration not stated) | 8.25 µg/mL (≈ 20.9 µM)

More lines, now with the values ahead:

Row | MIC | Compound
29 | 16.5 µg/mL (≈ 35.1 µM) | Cc1ccc(-n2nnc(C3=NN(C(=S)Nc4ccccc4)C(c4ccc(F)cc4)C3)c2C)cc1 (configuration not stated)
30 | 8.25 µg/mL (≈ 17.3 µM) | Cc1ccc(-n2nnc(C3=NN(C(=S)Nc4ccccc4)C(c4ccc(C#N)cc4)C3)c2C)cc1 (configuration not stated)

system: Staphylococcus aureus; test: Antimicrobial activity against Staphylococcus aureus ATCC 29213 at 100 ug/ml after 24 hrs by agar well diffusion assay; format: functional; conditions: ATCC 29213, 24 h, read-out: DIZ

Row | Compound | zone of inhibition at 100 µg/mL
31 | Cc1ccc(-n2nnc(C3=NNC(c4ccc(N5CCCCC5)cc4)C3)c2C)cc1 (configuration not stated) | 18 mm
32 | Cc1ccc(-n2nnc(C3=NN(C(=S)Nc4ccccc4)C(c4ccc(F)cc4)C3)c2C)cc1 (configuration not stated) | 16 mm
33 | Cc1ccc(-n2nnc(C3=NN(C(=S)Nc4ccccc4)C(c4ccc(C#N)cc4)C3)c2C)cc1 (configuration not stated) | 20 mm
34 | Cc1ccc(-n2nnc(C3=NN(C(=S)NC(=O)c4ccccc4)C(c4ccc(N5CCCCC5)cc4)C3)c2C)cc1 (configuration not stated) | 16 mm

system: Candida albicans; test: Antifungal activity against Candida albicans NRRL Y-477 at 100 ug/ml after 24 hrs by agar well diffusion assay; format: functional; conditions: NRRL Y-477, 24 h, read-out: DIZ

Row | Compound | zone of inhibition at 100 µg/mL
35 | Cc1ccc(-n2nnc(C3=NNC(c4ccc(N5CCCCC5)cc4)C3)c2C)cc1 (configuration not stated) | 18 mm
36 | Cc1ccc(-n2nnc(C3=NN(C(=S)Nc4ccccc4)C(c4ccc(F)cc4)C3)c2C)cc1 (configuration not stated) | 22 mm
37 | Cc1ccc(-n2nnc(C3=NN(C(=S)Nc4ccccc4)C(c4ccc(C#N)cc4)C3)c2C)cc1 (configuration not stated) | 22 mm
38 | Cc1ccc(-n2nnc(C3=NN(C(=S)NC(=O)c4ccccc4)C(c4ccc(N5CCCCC5)cc4)C3)c2C)cc1 (configuration not stated) | 30 mm
39 | Cc1ccc(-n2nnc(C3=NN(C(N)=S)C(c4ccc(F)cc4)C3)c2C)cc1 (configuration not stated) | 26 mm

system: Candida albicans; test: Antifungal activity against Candida albicans NRRL Y-477 by two-fold serial dilution method; format: functional; conditions: not given

Row | Compound | MIC
40 | Cc1ccc(-n2nnc(C3=NNC(c4ccc(N5CCCCC5)cc4)C3)c2C)cc1 (configuration not stated) | 132 µg/mL (≈ 330 µM)
41 | Cc1ccc(-n2nnc(C3=NN(C(=S)NC(=O)c4ccccc4)C(c4ccc(N5CCCCC5)cc4)C3)c2C)cc1 (configuration not stated) | 8.25 µg/mL (≈ 14.6 µM)
42 | Cc1ccc(-n2nnc(C3=NN(C(N)=S)C(c4ccc(F)cc4)C3)c2C)cc1 (configuration not stated) | 16.5 µg/mL (≈ 41.8 µM)

Continued, values first:

Row | MIC | Compound
43 | 16.5 µg/mL (≈ 35.1 µM) | Cc1ccc(-n2nnc(C3=NN(C(=S)Nc4ccccc4)C(c4ccc(F)cc4)C3)c2C)cc1 (configuration not stated)
44 | 33 µg/mL (≈ 69.1 µM) | Cc1ccc(-n2nnc(C3=NN(C(=S)Nc4ccccc4)C(c4ccc(C#N)cc4)C3)c2C)cc1 (configuration not stated)

system: Micrococcus luteus; test: Antimicrobial activity against Sarcina lutea at 100 ug/ml after 24 hrs by agar well diffusion assay; format: functional; conditions: read-out: DIZ

Row | Compound | zone of inhibition at 100 µg/mL
45 | Cc1ccc(-n2nnc(C3=NNC(c4ccc(N5CCCCC5)cc4)C3)c2C)cc1 (configuration not stated) | 18 mm
46 | Cc1ccc(-n2nnc(C3=NN(C(=S)Nc4ccccc4)C(c4ccc(F)cc4)C3)c2C)cc1 (configuration not stated) | 20 mm
47 | Cc1ccc(-n2nnc(C3=NN(C(=S)Nc4ccccc4)C(c4ccc(C#N)cc4)C3)c2C)cc1 (configuration not stated) | 24 mm
48 | Cc1ccc(-n2nnc(C3=NN(C(=S)NC(=O)c4ccccc4)C(c4ccc(N5CCCCC5)cc4)C3)c2C)cc1 (configuration not stated) | 23 mm
49 | Cc1ccc(-n2nnc(C3=NN(C(N)=S)C(c4ccc(F)cc4)C3)c2C)cc1 (configuration not stated) | 16 mm

system: Pseudomonas aeruginosa; test: Antimicrobial activity against Pseudomonas aeruginosa ATCC 27953 after 24 hrs by two-fold serial dilution method; format: functional; conditions: ATCC 27953, 24 h

Row | Compound | MIC
50 | Cc1ccc(-n2nnc(C3=NN(C(=S)Nc4ccccc4)C(c4ccc(C#N)cc4)C3)c2C)cc1 (configuration not stated) | 66 µg/mL (≈ 138 µM)
51 | Cc1ccc(-n2nnc(C3=NN(C(=S)NC(=O)c4ccccc4)C(c4ccc(N5CCCCC5)cc4)C3)c2C)cc1 (configuration not stated) | 33 µg/mL (≈ 58.5 µM)
52 | Cc1ccc(-n2nnc(C3=NN(C(N)=S)C(c4ccc(F)cc4)C3)c2C)cc1 (configuration not stated) | 16.5 µg/mL (≈ 41.8 µM)

system: Saccharomyces cerevisiae; test: Antifungal activity against Saccharomyces cerevisiae at 100 ug/ml after 24 hrs by agar well diffusion assay; format: functional; conditions: read-out: DIZ

Row | Compound | zone of inhibition at 100 µg/mL
53 | Cc1ccc(-n2nnc(C3=NNC(c4ccc(N5CCCCC5)cc4)C3)c2C)cc1 (configuration not stated) | 18 mm
54 | Cc1ccc(-n2nnc(C3=NN(C(=S)Nc4ccccc4)C(c4ccc(F)cc4)C3)c2C)cc1 (configuration not stated) | 24 mm
55 | Cc1ccc(-n2nnc(C3=NN(C(=S)Nc4ccccc4)C(c4ccc(C#N)cc4)C3)c2C)cc1 (configuration not stated) | 24 mm
56 | Cc1ccc(-n2nnc(C3=NN(C(=S)NC(=O)c4ccccc4)C(c4ccc(N5CCCCC5)cc4)C3)c2C)cc1 (configuration not stated) | 30 mm
57 | Cc1ccc(-n2nnc(C3=NN(C(N)=S)C(c4ccc(F)cc4)C3)c2C)cc1 (configuration not stated) | 30 mm

system: Micrococcus luteus; test: Antimicrobial activity against Sarcina lutea after 24 hrs by two-fold serial dilution method; format: functional; conditions: not given

Row | Compound | MIC
58 | Cc1ccc(-n2nnc(C3=NNC(c4ccc(N5CCCCC5)cc4)C3)c2C)cc1 (configuration not stated) | 33 µg/mL (≈ 82.4 µM)
59 | Cc1ccc(-n2nnc(C3=NN(C(=S)NC(=O)c4ccccc4)C(c4ccc(N5CCCCC5)cc4)C3)c2C)cc1 (configuration not stated) | 66 µg/mL (≈ 117 µM)
60 | Cc1ccc(-n2nnc(C3=NN(C(N)=S)C(c4ccc(F)cc4)C3)c2C)cc1 (configuration not stated) | 132 µg/mL (≈ 335 µM)

Continued, values first:

Row | MIC | Compound
61 | 16.5 µg/mL (≈ 35.1 µM) | Cc1ccc(-n2nnc(C3=NN(C(=S)Nc4ccccc4)C(c4ccc(F)cc4)C3)c2C)cc1 (configuration not stated)
62 | 33 µg/mL (≈ 69.1 µM) | Cc1ccc(-n2nnc(C3=NN(C(=S)Nc4ccccc4)C(c4ccc(C#N)cc4)C3)c2C)cc1 (configuration not stated)
